Laboratory results: the CheMixHub ionic liquid set
Where “and” joins values, the source holds several entries; their conditions need not be identical. Identical values can stand only once.

Assay: xn = mol fraction of the nth substance listed

CCCCCCCCCCCC[n+]1ccn(C)c1.[Br-] + O
298.15 K, 100 kPa, frequency 0.001 MHz
Settings	electrical conductivity [S/m]
x1 = 3.604e-05	0.018
x1 = 7.207e-05	0.036
x1 = 9.009e-05	0.045
x1 = 0.0001081	0.054
x1 = 0.0001261	0.065
x1 = 0.0001441	0.072
x1 = 0.0001622	0.081
x1 = 0.0001802	0.089
x1 = 0.0002522	0.101
x1 = 0.0003242	0.111

CCCCC[n+]1ccccc1.N#C[N-]C#N + O
100 kPa
Settings	electrical conductivity [S/m]	viscosity [mPa·s]
298.15 K, x1 = 0.9354	0.667	–
303.15 K, x1 = 0.9354	0.833	–
308.15 K, x1 = 0.9514	–	28.8
308.15 K, x1 = 0.9515	0.979	–
308.15 K, x1 = 0.968	–	29.6
313.15 K, x1 = 0.9196	–	22.92
313.15 K, x1 = 0.9198	1.23	–
318.15 K, x1 = 0.9681	1.27	–
318.15 K, x2 = 0.01457	1.23	–
323.15 K, x1 = 0.9196	–	15.16
323.15 K, x1 = 0.9198	1.67	–
323.15 K, x1 = 0.968	–	16.91
323.15 K, x1 = 0.9681	1.5	–
323.15 K, x2 = 0.01492	–	17.54
328.15 K, x1 = 0.9351	–	14.21
328.15 K, x1 = 0.9354	1.82	–
328.15 K, x2 = 0.01457	1.65	–
328.15 K, x2 = 0.01492	–	15.11
338.15 K, x1 = 0.9514	–	11.11
338.15 K, x1 = 0.9515	2.23	–

CCCC[N+](C)(CCCC)CCCC.[Cl-] + O
viscosity
Settings	293.15 K	298.15 K	303.15 K	308.15 K	313.15 K
100 kPa, x1 = 0.0003603	1.01 mPa·s	0.904 mPa·s	0.809 mPa·s	0.726 mPa·s	0.661 mPa·s
100 kPa, x1 = 0.0007023	1.024 mPa·s	0.914 mPa·s	0.815 mPa·s	0.735 mPa·s	0.671 mPa·s
100 kPa, x1 = 0.001062	1.035 mPa·s	0.93 mPa·s	0.829 mPa·s	0.744 mPa·s	0.686 mPa·s
100 kPa, x1 = 0.001422	1.045 mPa·s	0.941 mPa·s	0.839 mPa·s	0.756 mPa·s	0.694 mPa·s
101.3 kPa, x1 = 0.0003423	1.011 mPa·s	0.904 mPa·s	0.806 mPa·s	0.729 mPa·s	0.662 mPa·s
101.3 kPa, x1 = 0.0007203	1.023 mPa·s and 0.98 mPa·s and 1.04 mPa·s	0.914 mPa·s and 0.88 mPa·s and 0.93 mPa·s	0.812 mPa·s and 0.74 mPa·s and 0.83 mPa·s	0.737 mPa·s and 0.65 mPa·s and 0.75 mPa·s	0.672 mPa·s and 0.67 mPa·s
101.3 kPa, x1 = 0.001062	1.036 mPa·s	0.931 mPa·s	0.826 mPa·s	0.747 mPa·s	0.686 mPa·s
101.3 kPa, x1 = 0.00144	1.044 mPa·s and 0.97 mPa·s and 1.08 mPa·s	0.942 mPa·s and 0.89 mPa·s and 0.96 mPa·s	0.84 mPa·s and 0.77 mPa·s and 0.86 mPa·s	0.759 mPa·s and 0.77 mPa·s	0.695 mPa·s and 0.7 mPa·s

CCCC[n+]1ccn(C)c1.N[C@@H](CO)C(=O)[O-] + O
100 kPa
Settings	electrical conductivity [S/m]	viscosity [mPa·s]
298.15 K, x1 = 0.8281	0.00761	–
298.15 K, x1 = 0.8435	0.00711	–
298.15 K, x1 = 0.8592	0.00675	–
298.15 K, x1 = 0.8757	0.00646	–
298.15 K, x1 = 0.8914	0.00609	–
298.15 K, x1 = 0.8939	–	5180
298.15 K, x1 = 0.9163	–	5221
303.15 K, x1 = 0.8592	0.0107	–
303.15 K, x1 = 0.8757	0.0101	–
303.15 K, x1 = 0.8914	0.00973	–
303.15 K, x1 = 0.8939	–	3031
308.15 K, x1 = 0.8757	0.0159	–
313.15 K, x1 = 0.8939	–	1179
313.15 K, x1 = 0.939	–	1290
328.15 K, x1 = 0.8435	0.078	–
328.15 K, x1 = 0.8521	–	338
328.15 K, x1 = 0.8592	0.0738	–
328.15 K, x1 = 0.8939	–	367
328.15 K, x1 = 0.939	–	422
333.15 K, x1 = 0.8281	0.11	–
333.15 K, x1 = 0.8592	0.1	–
338.15 K, x1 = 0.8521	–	179.9
338.15 K, x1 = 0.8592	0.132	–

CCCn1cc[n+](C)c1.[Br-] + O
Settings	electrical conductivity	viscosity [mPa·s]
298 K, 101 kPa, x2 = 0.22	0.14 S/m and 0.17 S/m	–
298 K, 101 kPa, x2 = 0.88	9.16 S/m	–
298 K, 101 kPa, x2 = 0.93	9.89 S/m	–
298 K, 101 kPa, x2 = 0.98	6.44 S/m	–
303.15 K, 100 kPa, x1 = 0.4005	–	29.2
323.15 K, 100 kPa, x1 = 0.0497	–	1.09

CC[n+]1ccn(C)c1.CS(=O)(=O)[O-] + O
100 kPa, frequency 0.003 MHz
Settings	electrical conductivity [S/m]
293.15 K, x1 = 0.0165	3.25
303.15 K, x1 = 0.1122	4.74
313.15 K, x1 = 0.3752	2.25
323.15 K, x1 = 0.0489	8.42
323.15 K, x1 = 0.2034	5.15
323.15 K, x1 = 0.3752	2.92
323.15 K, x1 = 0.9339	0.827
343.15 K, x1 = 0.0165	7.59
343.15 K, x1 = 0.0489	11.4
353.15 K, x1 = 0.0165	8.61
353.15 K, x1 = 0.0489	13
353.15 K, x1 = 0.3752	5.32
353.15 K, x1 = 0.9339	2.01

Settings	viscosity [mPa·s]
293.15 K, 100 kPa, x1 = 0.0674	3.026
298.15 K, 102.2 kPa, x1 = 0.75	42.2
303.15 K, 100 kPa, x1 = 0.0177	1.135
303.15 K, 100 kPa, x1 = 0.9357	115
303.15 K, 102.2 kPa, x1 = 0.75	34.3
313.15 K, 100 kPa, x1 = 0.0357	1.237
313.15 K, 100 kPa, x1 = 0.1089	3.068
313.15 K, 102.2 kPa, x1 = 0.75	24
323.15 K, 100 kPa, x1 = 0.0177	0.756
323.15 K, 100 kPa, x1 = 0.0357	1.012
323.15 K, 100 kPa, x1 = 0.4263	12.22
328.15 K, 102.2 kPa, x1 = 0.75	15.7
353.15 K, 100 kPa, x1 = 0.0674	0.879
353.15 K, 100 kPa, x1 = 0.1848	2.346

C[C@H](N)C(=O)[O-].C[N+](C)(C)CCO + O
Settings	viscosity [mPa·s]
287.97 K, 100 kPa, x1 = 0.2939	177
288.1 K, 100 kPa, x1 = 1	5100
289.25 K, 100 kPa, x1 = 0.5975	970
289.31 K, 100 kPa, x1 = 0.692	1467
289.96 K, 100 kPa, x1 = 1	3700
290.48 K, 100 kPa, x1 = 0.2939	153
290.53 K, 100 kPa, x1 = 0.7994	1752
292.92 K, 100 kPa, x1 = 0.097	8.7
292.92 K, 100 kPa, x1 = 0.4948	490
292.92 K, 100 kPa, x1 = 0.5975	710
292.92 K, 100 kPa, x1 = 0.692	1030
294.1 K, 100 kPa, x1 = 0.097	8.4
294.1 K, 100 kPa, x1 = 0.4948	450
294.1 K, 100 kPa, x1 = 0.692	930
294.1 K, 100 kPa, x1 = 0.7994	1250
295.27 K, 100 kPa, x1 = 0.7994	1129
296.45 K, 100 kPa, x1 = 0.4948	377
296.45 K, 100 kPa, x1 = 0.7994	1016
297.63 K, 100 kPa, x1 = 0.097	7.4
298.1 K, 101.3 kPa, x1 = 0.2727	33
298.81 K, 100 kPa, x1 = 0.2939	90
298.81 K, 100 kPa, x1 = 0.7994	840
299.98 K, 100 kPa, x1 = 0.097	6.9
299.98 K, 100 kPa, x1 = 0.3748	156
300.27 K, 100 kPa, x1 = 1	1538
301.16 K, 100 kPa, x1 = 0.692	530
302.34 K, 100 kPa, x1 = 0.3748	135
303.51 K, 100 kPa, x1 = 0.3748	126
303.51 K, 100 kPa, x1 = 0.7994	580
304.72 K, 100 kPa, x1 = 1	1206
305.86 K, 100 kPa, x1 = 0.3748	109
305.86 K, 100 kPa, x1 = 0.4948	200
305.86 K, 100 kPa, x1 = 0.8993	680
307.04 K, 100 kPa, x1 = 0.3748	103
307.04 K, 100 kPa, x1 = 0.5975	254
307.04 K, 100 kPa, x1 = 0.8993	630
313 K, 101.3 kPa, x1 = 0.1233	5.7
323.2 K, 100 kPa, x1 = 1	337
333 K, 101.3 kPa, x1 = 0.05881	2.27

Cn1cc[n+](CCC(=O)O)c1.[Cl-] + O
viscosity [mPa·s], 100 kPa
Settings	x1 = 0.0009214	x1 = 0.001799	x1 = 0.003593	x1 = 0.005399	x1 = 0.00717	x1 = 0.008993
293.15 K	1.006	1.022	1.056	1.092	1.128	1.167
298.15 K	0.893	0.907	0.937	0.966	0.995	1.03
303.15 K	0.802	0.814	0.839	0.865	0.89	0.922
308.15 K	0.726	0.735	0.759	0.783	0.807	0.831
313.15 K	0.658	0.668	0.689	0.711	0.73	0.75

Cn1cc[n+](CCC[n+]2ccn(C)c2)c1.[Br-].[Br-] + O
viscosity [mPa·s], 101 kPa
Settings	x1 = 0.0005912	x1 = 0.0006805	x1 = 0.0007474	x1 = 0.0009122	x1 = 0.00129	x1 = 0.00144	x1 = 0.001838	x1 = 0.002094	x1 = 0.002204	x1 = 0.002491
293.15 K	–	–	–	–	–	1.05	1.066	1.071	1.071	1.084
298.15 K	0.905	0.904	0.908	0.913	–	0.935	0.948	0.955	0.955	0.962
303.15 K	0.812	0.811	0.816	–	0.832	0.84	0.85	0.855	0.857	0.859
308.15 K	0.734	0.734	0.739	0.74	0.754	–	0.768	0.77	0.774	0.775
313.15 K	0.669	0.67	0.673	–	–	0.693	0.7	0.702	0.705	0.708
